Measured values reported in patent US20110207609A1, “Piperazine Compounds With Herbicidal Effect” (BASF SE, priority 2008, published 2011).

Columns and labels:
[1] = test system: MATIN; test: greenhouse test, pre-emergence treatment; type: in vivo, Matricaria inodora; conditions: 2.0 kg/ha, scale 0 to 100
From the text: (§1) The culture containers used were plastic flowerpots containing loamy sand with approximately 5.8% of humus as the substrate. The seeds of the test plants were sown separately for each species.
(§2) For the pre-emergence treatment, the active compounds, which had been suspended or emulsified in water, were applied directly after sowing by means of finely distributing nozzles. The containers were irrigated gently to promote germination and growth and subsequently covered with transparent plastic hoods until the plants had rooted. This cover caused uniform germination of the test plants, unless this has been impaired by the active compounds.
(§3) Depending on the species, the plants were kept at 10-25° C. or 20-35° C. The test period extended over 1 to 4 weeks. During this time, the plants were tended, and their response to the individual treatments was evaluated.
(§4) Evaluation was carried out using a scale from 0 to 100. 100 means no emergence of the plants, or complete destruction of at least the aerial moieties, and 0 means no damage, or normal course of growth. A good herbicidal activity is given at values of at least 70 and a very good herbicidal activity is given at values of at least 85.

[2] = test system: MATIN; test: greenhouse test, post-emergence treatment; type: in vivo, Matricaria inodora; conditions: 2.0 kg/ha, scale 0 to 100
From the text: as §1
(§5) For the post-emergence treatment, the test plants were first grown to a height of 1.5 to 15 cm, depending on the plant habit, and then treated with the active compounds which had been suspended or emulsified in water. For this purpose, the test plants were either sown directly and grown in the same containers, or they were first grown separately as seedlings and transplanted into the test containers a few days prior to treatment.
as §3, §4

[3] = test system: AGSST; test: greenhouse test, post-emergence treatment; type: in vivo, Agrostis alba; conditions: 2.0 kg/ha, scale 0 to 100
From the text: as §1, §5, §3, §4

[4] = test system: CHEAL; test: greenhouse test, post-emergence treatment; type: in vivo, Chenopodium album; conditions: 1.0 kg/ha, scale 0 to 100
From the text: as §1, §5, §3, §4

[5] = test system: SETVI; test: greenhouse test, pre-emergence treatment; type: in vivo, Setaria viridis; conditions: 1.0 kg/ha, scale 0 to 100
From the text: as §1, §2, §3, §4

[6] = test system: ECHCG; test: greenhouse test, post-emergence treatment; type: in vivo, Echinochloa crus-galli; conditions: 1.0 kg/ha, scale 0 to 100
From the text: as §1, §5, §3, §4

[7] = test system: AMARE; test: greenhouse test, post-emergence treatment; type: in vivo, Amaranthus retroflexus; conditions: 0.5 kg/ha, scale 0 to 100
From the text: as §1, §5, §3, §4

[8] = test system: GALAP; test: greenhouse test, post-emergence treatment; type: in vivo, Galium aparine; conditions: 0.5 kg/ha, scale 0 to 100
From the text: as §1, §5, §3, §4

[9] = test system: SETFA; test: greenhouse test, pre-emergence treatment; type: in vivo, Setaria faberi; conditions: comparative experiment, 0.5 kg/ha
Protocol: as §1
(§6) The containers were irrigated gently to promote germination and growth and subsequently covered with transparent plastic hoods until the plants had rooted.
as §3, §4

[10] = test system: APESV; test: greenhouse test, pre-emergence treatment; type: in vivo, Apera spica-venti
Protocol: as §1, §6, §3, §4

[11] = comparative experiment, 0.5 kg/ha

CN1C(=O)C(C)(Cc2ccccc2)N(C)C(=O)C1=Cc1occc1Br (racemic) [I-11]
herbicidal activity [1]: very good (a very good herbicidal activity is given at values of at least 85)
herbicidal activity [2]: very good (a very good herbicidal activity is given at values of at least 85)
herbicidal activity [3]: very good (a very good herbicidal activity is given at values of at least 85)

Cc1nn(C)c(Cl)c1C=C1C(=O)N(C)C(C)(Cc2ccccc2)C(=O)N1C (racemic) [I-15]
herbicidal activity [4]: very good (a very good herbicidal activity is given at values of at least 85)
herbicidal activity [5]: very good (a very good herbicidal activity is given at values of at least 85)

CN1C(=O)C(=Cc2cn(C)c3cccc([N+](=O)[O-])c23)NC(=O)C1(C)Cc1ccccc1 (racemic) [I-18]
herbicidal activity [6]: good (A good herbicidal activity is given at values of at least 70)

Cc1ncn(C)c1C=C1C(=O)N(C)C(C)(Cc2ccccc2)C(=O)N1C (racemic) [I-38]
herbicidal activity [7]: good (A good herbicidal activity is given at values of at least 70)
herbicidal activity [8]: very good (a very good herbicidal activity is given at values of at least 85)

CN1C(=O)C(C)(Cc2ccccc2)N(C)C(=O)C1=Cc1cc(Cl)sc1Cl (racemic) [I-56]
herbicidal activity [9]: 80%
herbicidal activity [10, 11]: 80%

CN1C(=O)C(C)(Cc2ccccc2)N(C)C(=O)C1=Cc1cnn2cccnc12 (racemic) [I-61]
herbicidal activity ([10]; 1.0 kg/ha, scale 0 to 100): good (A good herbicidal activity is given at values of at least 70)

CN1C(=O)C(Cc2cscc2C(F)(F)F)N(C)C(=O)C1Cc1ccccc1 (centres unmarked) [Ex. I.236.1, reference compound]
herbicidal activity [10, 11]: 20%

CN1C(=O)C(C)(Cc2ccccc2)N(C)C(=O)C1Cc1cscc1C(F)(F)F (centres unmarked) [II-21]
herbicidal activity [9]: 95%
herbicidal activity [10, 11]: 98%
